Measurements published in patent US11713344B2 (DONG-A ST CO., LTD., priority 2017, dated 2023).

Key:
[1] = biological target: Human GLP-1 receptors (Homo sapiens, UniProt P43220); assay: GLP-1 receptor activation assay (CRE-luciferase reporter, CHO-K1)
Method: Then, the resulting increased luciferase activity was evaluated as a measurement of the effect on each receptor activation.
After 3 hours of transfection, medium was exchanged to Alpha Minimal Essential Medium (α-MEM) comprising 10% fetal bovine serum (FBS). Next day, the medium was exchanged to α-MEM comprising the analog of the present invention and 0.1% bovine serum albumin (BSA). After 6 hours, dual luciferase assay reagent was added in the same amount as the medium in which the cells were submerged, and firefly luciferase and Renilla luciferase activities were continuously measured. Firefly luciferase activity values were corrected against Renilla luciferase activity to yield transfection efficiency.

[2] = biological target: Human glucagon receptors (Homo sapiens, UniProt P47871); assay: Glucagon receptor activation assay (CRE-luciferase reporter, CHO-K1)
[3] = Body weight loss efficacy by 5-day repeated injection vs Liraglutide and MEDI0382, obese mice (Exp. Ex. 10); format: in vivo, C57BL/6 mouse; settings: 30 nmol/kg s.c. once a day x 4
Method: Male laboratory mice (C57BL/6 mouse) were given diet containing high fat. The mice with high-fat-diet-induced obesity were grouped by body weight before beginning the experiment. […] Body weight and food intake was measured once per day, at the same time each day.

Sequence of Human glucagon receptors (P47871 26-477): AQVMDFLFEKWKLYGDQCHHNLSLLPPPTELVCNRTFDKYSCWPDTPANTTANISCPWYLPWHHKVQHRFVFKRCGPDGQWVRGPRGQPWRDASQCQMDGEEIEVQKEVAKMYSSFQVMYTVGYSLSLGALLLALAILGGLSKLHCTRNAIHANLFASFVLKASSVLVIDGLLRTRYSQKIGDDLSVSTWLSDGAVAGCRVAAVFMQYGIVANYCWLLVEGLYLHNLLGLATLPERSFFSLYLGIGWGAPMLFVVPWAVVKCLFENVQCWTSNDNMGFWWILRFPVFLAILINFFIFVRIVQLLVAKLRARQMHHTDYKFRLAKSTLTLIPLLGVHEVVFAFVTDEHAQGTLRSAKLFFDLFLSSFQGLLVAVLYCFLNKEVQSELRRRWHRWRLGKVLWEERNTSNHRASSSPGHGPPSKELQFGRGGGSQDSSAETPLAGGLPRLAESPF
Sequence of Human GLP-1 receptors (P43220 24-463): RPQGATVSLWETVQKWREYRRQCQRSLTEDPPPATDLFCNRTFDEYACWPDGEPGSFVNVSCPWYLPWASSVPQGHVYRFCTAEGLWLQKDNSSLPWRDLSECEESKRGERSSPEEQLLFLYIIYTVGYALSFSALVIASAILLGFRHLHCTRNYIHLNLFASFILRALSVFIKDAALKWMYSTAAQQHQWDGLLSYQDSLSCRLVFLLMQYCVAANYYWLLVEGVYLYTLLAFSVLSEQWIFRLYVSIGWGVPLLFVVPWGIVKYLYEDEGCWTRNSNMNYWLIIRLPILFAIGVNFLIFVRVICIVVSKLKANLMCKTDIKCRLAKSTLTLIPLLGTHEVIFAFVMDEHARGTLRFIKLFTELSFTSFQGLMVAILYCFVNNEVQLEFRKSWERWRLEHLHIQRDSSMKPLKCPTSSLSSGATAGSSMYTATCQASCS

| SMILES | EC50 [1] [nM] | EC50 [2] [nM] | body weight loss from baseline [3] [%] |
| --- | --- | --- | --- |
| CSCC[C@H](NC(=O)[C@H](CC(C)C)NC(=O)[C@H](Cc1c[nH]c2ccccc12)NC(=O)[C@H](CCC(N)=O)NC(=O)[C@@H](NC(=O)[C@H](Cc1ccccc1)NC(=O)[C@H](CCC(=O)O)NC(=O)[C@@H]1CCCCNC(=O)CC[C@H](NC(=O)[C@H](CC(=O)O)NC(=O)[C@H](CC(C)C)NC(=O)[C@H](Cc2ccc(O)cc2)NC(=O)[C@H](CCCCN)NC(=O)[C@H](CO)NC(=O)[C@H](Cc2ccc(O)cc2)NC(=O)[C@H](CC(=O)O)NC(=O)[C@H](CO)NC(=O)[C@@H](NC(=O)[C@H](Cc2ccccc2)NC(=O)[C@@H](NC(=O)CNC(=O)[C@H](CCC(N)=O)NC(=O)C(C)(C)NC(=O)[C@@H](N)Cc2c[nH]cn2)[C@@H](C)O)[C@@H](C)O)C(=O)N[C@@H](CCCCN)C(=O)N[C@@H](CCCNC(=N)N)C(=O)N[C@@H](C)C(=O)N1)C(C)C)C(=O)N[C@@H](CC(N)=O)C(=O)N[C@H](C(=O)N[C@@H](CCCCN)C(=O)N[C@@H](CS)C(=O)O)[C@@H](C)O [Compound 47, reference compound] | < 0.01 | 0.01 to 0.1 | – |
| CCCCCCCCCCCCCCCC(=O)N[C@@H](CCC(=O)NCCCC[C@H](NC(=O)[C@H](CC(=O)O)NC(=O)[C@H](CO)NC(=O)[C@@H](NC(=O)[C@H](Cc1ccccc1)NC(=O)[C@@H](NC(=O)CNC(=O)[C@H](CCC(N)=O)NC(=O)[C@H](CO)NC(=O)[C@@H](N)Cc1c[nH]cn1)[C@@H](C)O)[C@@H](C)O)C(=O)N[C@@H](CO)C(=O)N[C@@H](CCC(=O)O)C(=O)N[C@@H](Cc1ccc(O)cc1)C(=O)N[C@@H](CC(C)C)C(=O)N[C@@H](CC(=O)O)C(=O)N[C@@H](CO)C(=O)N[C@@H](CCC(=O)O)C(=O)N[C@@H](CCCNC(=N)N)C(=O)N[C@@H](C)C(=O)N[C@@H](CCCNC(=N)N)C(=O)N[C@@H](CC(=O)O)C(=O)N[C@@H](Cc1ccccc1)C(=O)N[C@H](C(=O)N[C@@H](C)C(=O)N[C@@H](Cc1c[nH]c2ccccc12)C(=O)N[C@@H](CC(C)C)C(=O)N[C@@H](CCC(=O)O)C(=O)N[C@@H](C)C(=O)NCC(=O)NCC(=O)O)C(C)C)C(=O)O [MEDI0382, reference compound] | < 0.01 | 0.01 to 0.1 | 8.0 |
